Kd data for 2 compounds are collected here from publication PMC9379551, “Structure of cytosine transport protein CodB provides insight into nucleobase‐cation symporter 1 mechanism” (The EMBO Journal, 2022).

Assay [1] concerns the target T1, CodB (Proteus vulgaris, UniProt A0A6G6SKI1). Kind of assay: GFP thermostability assay titration (Kd); inhibition of 3H-cytosine uptake in cells. Also noted: CodB from P. vulgaris expressed as CodB-GFP fusion, detergent-solubilised membranes. It is filed as binding.
Assay [2] deals with T1, CodB. In words: crystal structure at […] Å; GFP thermostability assay titration (Kd); sodium-dependent 3H-cytosine uptake in cells. It is filed as binding. Also noted: CodB from P. vulgaris expressed as CodB-GFP fusion (GFP-TS assay); cleaved with 3C protease for crystallisation.

T1 sequence (A0A6G6SKI1 entry or part of it): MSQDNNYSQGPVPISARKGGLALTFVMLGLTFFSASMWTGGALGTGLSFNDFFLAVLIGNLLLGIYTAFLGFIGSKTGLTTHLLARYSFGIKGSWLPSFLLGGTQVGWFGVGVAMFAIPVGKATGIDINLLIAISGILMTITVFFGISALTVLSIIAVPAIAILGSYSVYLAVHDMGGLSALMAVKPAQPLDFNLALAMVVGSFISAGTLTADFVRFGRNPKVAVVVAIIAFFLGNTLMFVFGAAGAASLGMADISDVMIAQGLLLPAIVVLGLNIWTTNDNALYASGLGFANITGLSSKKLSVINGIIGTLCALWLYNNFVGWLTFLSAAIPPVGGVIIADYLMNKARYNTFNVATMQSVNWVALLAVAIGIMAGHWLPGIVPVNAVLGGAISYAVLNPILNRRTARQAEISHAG

On to `Nc1nc(=O)[nH]cc1F` [5-fluorocytosine], for which binding in assay [1] was characterised by a dissociation constant (Kd) of 285 ± 39 µM.
Take `Nc1cc[nH]c(=O)n1` [cytosine]: in assay [2], the affinity, expressed as Kd, was 51 ± 9 µM.
